Assay results: PubChem BioAssay (NCI)
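Growth conditions: 96-well plates. Treatment: test compound, 48 hours, 5 concentrations. Analysis: linear interpolation between bracketing concentrations; unreached endpoints set to highest concentration. At the GI50, growth is halved. TGI is the concentration that stops growth completely.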

Experiments:
Assay in all cases: NCI-60 cell line screen, 48 h
OVCAR-8 ovarian = system: OVCAR-8 ovarian
K-562 leukemia = system: K-562 leukemia
UACC-62 melanoma = system: UACC-62 melanoma
KM12 colon = system: KM12 colon
HOP-92 NSCLC = system: HOP-92 NSCLC
OVCAR-4 ovarian = system: OVCAR-4 ovarian
U251 CNS = system: U251 CNS
SW-620 colon = system: SW-620 colon

| Compound | GI50 (OVCAR-8 ovarian) [µM] | TGI (OVCAR-8 ovarian) [µM] | GI50 (K-562 leukemia) [µM] | TGI (K-562 leukemia) [µM] | GI50 (UACC-62 melanoma) [µM] | TGI (UACC-62 melanoma) [µM] | GI50 (KM12 colon) [µM] | TGI (KM12 colon) [µM] | GI50 (HOP-92 NSCLC) [µM] | TGI (HOP-92 NSCLC) [µM] | GI50 (OVCAR-4 ovarian) [µM] | TGI (OVCAR-4 ovarian) [µM] | GI50 (U251 CNS) [µM] | TGI (U251 CNS) [µM] | GI50 (SW-620 colon) [µM] | TGI (SW-620 colon) [µM] |
| --- | --- | --- | --- | --- | --- | --- | --- | --- | --- | --- | --- | --- | --- | --- | --- | --- |
| O=C(Nc1nc(-c2ccc(Cl)cc2)cs1)c1ccc(O)c(O)c1 | 4.14 | 16.7 | 3.46 | 20 | 4.24 | 18.1 | 5.36 | 21.2 | 2.67 | 9.18 | 4.33 | 35.9 | 3 | 13.7 | 4.74 | 20.1 |
| COc1cc2c(cc1OCCCCCN1CCN(c3cc(=O)oc4c(C)c(OC)ccc34)CC1)N=C[C@@H]1CCCN1C2=O | 0.018 | 5.15 | < 0.01 | 0.316 | < 0.01 | 0.0147 | < 0.0169 | 0.0965 | < 0.01 | < 0.0141 | < 0.0178 | 0.189 | < 0.01 | 0.585 | < 0.0108 | 4.26 |
| O=C(Nc1cccc(-c2nc3ccccc3[nH]2)c1)c1cccc(NC(=O)c2ccco2)c1 | 2.18 | 5.14 | 2.03 | 4.36 | 1.79 | 3.5 | 2.27 | 5.61 | 2.63 | 5.89 | 1.73 | 3.1 | 1.73 | 3.23 | 3.19 | 10.8 |
| O=C(/C=C/c1ccc2c(c1)OCO2)c1ccccc1 | 17.4 | 58.5 | 4.42 | > 100 | 16.3 | 33.7 | 3.02 | 14 | 15.4 | 41.3 | 24.8 | > 100 | 5.62 | 19 | 3.72 | 14.5 |
| CN1CCN(Cc2ccc(NC(=O)c3[nH]ncc3Nc3ccnc4ccsc34)cc2)CC1 | 3.63 | 16.4 | 2.47 | > 100 | 11.2 | 30.2 | 2.35 | 11.2 | 3.89 | 8.92 | 2.32 | 7.47 | 2.4 | 13.6 | 2.6 | 12 |
| CC(=O)NC(Cc1c[nH]c2ccccc12)C(=O)O (stereo unspecified) |  | > 100 |  | > 100 |  | > 100 |  | > 100 |  | > 100 |  | > 100 |  | > 100 |  | > 100 |
| COc1cc2c3c(n(CCCn4ccnc4)c(=O)c2cc1OC)-c1ccccc1C3=O | 0.0584 | 4.84 | < 0.0155 |  | < 0.0133 | 0.0906 | 0.126 | 5.03 | 0.0343 | 3 | 0.468 | 22.4 | < 0.0122 | 0.57 | < 0.0206 |  |
| CC(=O)[CH-]C(C)=O.CC(=O)[CH-]C(C)=O.CC(=O)[CH-]C(C)=O.[Cl-].[Hf+4] | > 100 | > 100 | > 100 | > 100 | > 100 | > 100 | > 100 | > 100 | > 100 | > 100 | > 100 | > 100 | > 100 | > 100 | > 100 | > 100 |
| O=C(CSc1nc2sc3c(c2c(=O)n1-c1ccccc1)CCCCC3)N/N=C/c1ccc(F)cc1 | 1.58 | 5.19 | 5.48 | > 100 | 11.4 | 27.1 | 6 | > 100 | 2.47 | 8.65 | 0.671 | 2.46 | 1.93 | 5.31 | 3.14 | 33.6 |
| CCOC(=O)c1ccc(C(O)CC(=O)OC(C)(C)C)[nH]1 (stereo unspecified) | 56.7 | > 100 | 52.6 | > 100 | 26.5 | 81.3 | 24 | 61.4 | 17.9 | 55.8 | 38.1 | > 100 | 39.5 | > 100 | 50.1 | > 100 |
| COc1cc(/C=C/C(=O)CC(=O)/C=C/c2ccc(OC(=O)CCNC34CC5CC(CC(C5)C3)C4)c(OC)c2)ccc1OC(=O)CCNC12CC3CC(CC(C3)C1)C2 | 3.71 | 13.4 | 4.41 | > 100 | 3.5 | 13 | 2.95 | 7.8 | 2.64 | 17.6 | 11 | > 100 | 3.39 | 12 | 2.43 | 6.03 |
